# In patent US8609610B2, “Inhibitors of the trypsin-like site of the proteasome and methods of use thereof” (Trustees of Dartmouth College, priority 2011, dated 2013):
# Columns and labels:
# [1] = tested on: chymotrypsin-like sites; settings: patients treated with bortezomib, maximal tolerated doses; cited from earlier work
# [2] = tested on: NCI-H929 cells; test: ALAMAR BLUE cell viability assay; assay type: cell-based; settings: NCI-H929, viability at 48 h
# Protocol: (§1) RPMI-8226 and NCI-H929 cells were cultured in RPMI-1640 supplemented with 10% fetal bovine serum, penicillin, streptomycin, and plasmocin in 5% CO2 humidified incubator. HEK-293T cells were cultured in DMEM containing 10% fetal calf serum, 10 units/mL penicillin, and 10 μg/mL streptomycin in a 7% CO2 humidified incubator. Viability of multiple myeloma cells was measured with ALAMAR BLUE mitochondrial dye conversion assay. Viability of peripheral blood mononuclear cells (PBMNCs) was measured using CELL TITER-GLO luminescent cell viability assay (Promega), which is based on quantification of ATP present in the cells. Caspase-3/7 activity was measured using APO-ONE 3/7 homogeneous assay (Promega).
# [3] = tested on: KMS-12-BM cells; test: ALAMAR BLUE cell viability assay; assay type: cell-based; settings: viability at 48 h
# Protocol: as §1
# [4] = tested on: chymotrypsin-like sites (β5) of proteasome in MM cells; test: PROTEASOMEGLO assay of proteasome inhibition in MM cells; assay type: cell-based; settings: KMS-12-BM, washout
# Protocol: (§2) Proteasome inhibition in MM cells was measured with luminogenic substrates using PROTEASOMEGLO assay (Promega). […] An aliquot of culture was pelleted and medium was removed and replaced with PBS. The resulting cell suspension was mixed with luminogenic substrates in the manufacturer-provided lysis/assay buffer. After 3 minutes mixing on an orbital shaker, the plate was incubated in the dark for additional 17 minutes, followed by the measurements of the luminescence, performed in triplicate for each substrate/data point. Data were analyzed as for purified proteasomes. […] Cells (1×10^6 per well of a 6-well plate) were incubated with the inhibitors for 4 hours at 37° C. and this was followed by a 2 hour incubation with 5 μM BODIPY-TMR-epoxomicin. Subsequently, the medium was removed and the cells were washed with PBS and harvested. […] The supernatant was collected and the protein concentration was determined by the Bradford assay, and used to normalize gel loading. The samples were analysed by SDS-PAGE and fluorescent densitometry as described for competition experiment in cell lysates. IC50 values were calculated from three independent experiments using […] PRISM software.
# [5] = tested on: T1, chymotrypsin-like sites (β5) of proteasome in MM cells; test: as above; assay type: cell-based; settings: for Inhibition of chymotrypsin-like sites, 6 h −NC-022 / Inhibition of chymotrypsin-like sites, 6 h +NC-022: washout
# T1 construct: other: NCI-H929; bortezomib 100 nM 1 h; bortezomib 11 nM 1 h; bortezomib 3.7 nM 1 h; bortezomib 33 nM 1 h; other: NCI-H9
# Protocol: as §2
# [6] = biological target: T2, trypsin-like sites (β2) of proteasome in MM cells (Homo sapiens, UniProt Q99436); test: as above; assay type: cell-based; settings: for Inhibition of trypsin-like sites, 6 h +NC-022 / Inhibition of trypsin-like sites, 6 h −NC-022: washout
# T2 construct: endogenous in cells; host or cells: NCI-H929, RPMI-8226 and other MM cell lines
# T2 sequence (Q99436 44-277): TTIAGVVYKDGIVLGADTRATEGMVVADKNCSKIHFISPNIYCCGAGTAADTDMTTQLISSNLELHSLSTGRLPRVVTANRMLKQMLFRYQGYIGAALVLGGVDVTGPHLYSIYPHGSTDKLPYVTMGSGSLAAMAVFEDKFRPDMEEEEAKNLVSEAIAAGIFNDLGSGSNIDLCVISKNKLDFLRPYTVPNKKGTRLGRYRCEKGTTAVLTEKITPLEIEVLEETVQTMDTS
# Protocol: as §2
# [7] = KMS-12-BM, bortezomib 33.3 nM 1 h
# [8] = KMS-12-BM, bortezomib 100 nM 1 h
# [9] = KMS-12-BM, bortezomib 300 nM 1 h
# [10] = KMS-12-BM, bortezomib 900 nM 1 h
# [11] = NCI-H929, bortezomib 3.7 nM 1 h
# [12] = NCI-H929, bortezomib 100 nM 1 h
compound,measurement,setting,value
CC(C)C[C@H](NC(=O)[C@H](Cc1ccccc1)NC(=O)c1cnccn1)B(O)O [Bortezomib],inhibition of the chymotrypsin-like sites in patients,[1],≤ 70%
same,Viability +NC-022,[2]; bortezomib 3.7 nM 1 h,85 ± 3 % control
same,Viability −NC-022,[2]; bortezomib 3.7 nM 1 h,107 ± 5 % control
same,Viability +NC-022,[2]; bortezomib 11 nM 1 h,65 ± 1 % control
same,Viability −NC-022,[2]; bortezomib 11 nM 1 h,106 ± 2 % control
same,Viability +NC-022,[2]; bortezomib 33 nM 1 h,19 ± 19 % control
same,Viability −NC-022,[2]; bortezomib 33 nM 1 h,53 ± 17 % control
same,Viability +NC-022,[2]; bortezomib 100 nM 1 h,1.9 ± 1.5 % control
same,Viability −NC-022,[2]; bortezomib 100 nM 1 h,2.9 ± 1.5 % control
same,Viability +NC-022,[3]; bortezomib 33.3 nM 1 h,72 ± 1 % control
same,Viability −NC-022,[3]; bortezomib 33.3 nM 1 h,98 ± 13 % control
same,Viability +NC-022,[3]; bortezomib 100 nM 1 h,42 ± 10 % control
same,Viability −NC-022,[3]; bortezomib 100 nM 1 h,92 ± 9 % control
same,Viability +NC-022,[3]; bortezomib 300 nM 1 h,14 ± 11 % control
same,Viability −NC-022,[3]; bortezomib 300 nM 1 h,66 ± 9 % control
same,Viability +NC-022,[3]; bortezomib 900 nM 1 h,3.8 ± 2.5 % control
same,Viability −NC-022,[3]; bortezomib 900 nM 1 h,14 ± 12 % control
same,"Inhibition of chymotrypsin-like sites, 6 h +NC-022",[4]; bortezomib 33.3 nM 1 h,62 ± 7 % control
same,"Inhibition of chymotrypsin-like sites, 6 h +NC-022",[4]; bortezomib 100 nM 1 h,75 ± 6 % control
same,"Inhibition of chymotrypsin-like sites, 1 h",[5]; [7],82 ± 8 % control
same,"Inhibition of chymotrypsin-like sites, 6 h −NC-022",[5]; [7],56 ± 24 % control
same,"Inhibition of chymotrypsin-like sites, 1 h",[5]; [8],90 ± 6 % control
same,"Inhibition of chymotrypsin-like sites, 6 h −NC-022",[5]; [8],64 ± 23 % control
same,"Inhibition of chymotrypsin-like sites, 1 h",[5]; [9],93 ± 3 % control
same,"Inhibition of chymotrypsin-like sites, 6 h +NC-022",[5]; [9],83 ± 6 % control
same,"Inhibition of chymotrypsin-like sites, 6 h −NC-022",[5]; [9],76 ± 18 % control
same,"Inhibition of chymotrypsin-like sites, 1 h",[5]; [10],93 ± 5 % control
same,"Inhibition of chymotrypsin-like sites, 6 h +NC-022",[5]; [10],88 ± 5 % control
same,"Inhibition of chymotrypsin-like sites, 6 h −NC-022",[5]; [10],84 ± 16 % control
same,"Inhibition of chymotrypsin-like sites, 1 h",[5]; [11],9 ± 7 % control
same,"Inhibition of chymotrypsin-like sites, 6 h +NC-022",[5]; [11],14 ± 13 % control
same,"Inhibition of chymotrypsin-like sites, 6 h −NC-022",[5]; [11],13 ± 1 % control
same,"Inhibition of chymotrypsin-like sites, 1 h","[5]; NCI-H929, bortezomib 11 nM 1 h",64 ± 7 % control
same,"Inhibition of chymotrypsin-like sites, 6 h +NC-022","[5]; NCI-H929, bortezomib 11 nM 1 h",34 ± 29 % control
same,"Inhibition of chymotrypsin-like sites, 6 h −NC-022","[5]; NCI-H929, bortezomib 11 nM 1 h",41 ± 3.5 % control
same,"Inhibition of chymotrypsin-like sites, 1 h","[5]; NCI-H929, bortezomib 33 nM 1 h",89 ± 2 % control
same,"Inhibition of chymotrypsin-like sites, 6 h +NC-022","[5]; NCI-H929, bortezomib 33 nM 1 h",48 ± 35 % control
same,"Inhibition of chymotrypsin-like sites, 6 h −NC-022","[5]; NCI-H929, bortezomib 33 nM 1 h",85 ± 4 % control
same,"Inhibition of chymotrypsin-like sites, 1 h",[5]; [12],96 ± 2 % control
same,"Inhibition of chymotrypsin-like sites, 6 h +NC-022",[5]; [12],93 ± 2 % control
same,"Inhibition of chymotrypsin-like sites, 6 h −NC-022",[5]; [12],86 ± 1 % control
same,"Inhibition of trypsin-like sites, 1 h",[6]; [7],10 ± 11 % control
same,"Inhibition of trypsin-like sites, 6 h +NC-022",[6]; [7],92 ± 0 % control
same,"Inhibition of trypsin-like sites, 6 h −NC-022",[6]; [7],8 ± 15 % control
same,"Inhibition of trypsin-like sites, 1 h",[6]; [8],19 ± 3 % control
same,"Inhibition of trypsin-like sites, 6 h +NC-022",[6]; [8],92 ± 1 % control
same,"Inhibition of trypsin-like sites, 6 h −NC-022",[6]; [8],15 ± 11 % control
same,"Inhibition of trypsin-like sites, 1 h",[6]; [9],22 ± 12 % control
same,"Inhibition of trypsin-like sites, 6 h +NC-022",[6]; [9],91 ± 2 % control
same,"Inhibition of trypsin-like sites, 6 h −NC-022",[6]; [9],24 ± 18 % control
same,"Inhibition of trypsin-like sites, 1 h",[6]; [10],28 ± 5 % control
same,"Inhibition of trypsin-like sites, 6 h +NC-022",[6]; [10],93 ± 1 % control
same,"Inhibition of trypsin-like sites, 6 h −NC-022",[6]; [10],26 ± 19 % control
same,"Inhibition of trypsin-like sites, 1 h",[6]; [11],0 ± 7 % control
same,"Inhibition of trypsin-like sites, 6 h +NC-022",[6]; [11],93 ± 2 % control
same,"Inhibition of trypsin-like sites, 6 h −NC-022",[6]; [11],6 ± 4 % control
same,"Inhibition of trypsin-like sites, 1 h","[6]; NCI-H929, bortezomib 11 nM 1 h",8 ± 11 % control
same,"Inhibition of trypsin-like sites, 6 h +NC-022","[6]; NCI-H929, bortezomib 11 nM 1 h",93 ± 2 % control
same,"Inhibition of trypsin-like sites, 6 h −NC-022","[6]; NCI-H929, bortezomib 11 nM 1 h",14 ± 2 % control
same,"Inhibition of trypsin-like sites, 1 h","[6]; NCI-H929, bortezomib 33 nM 1 h",26 ± 15 % control
same,"Inhibition of trypsin-like sites, 6 h +NC-022","[6]; NCI-H929, bortezomib 33 nM 1 h",94 ± 1 % control
same,"Inhibition of trypsin-like sites, 6 h −NC-022","[6]; NCI-H929, bortezomib 33 nM 1 h",31 ± 0 % control
same,"Inhibition of trypsin-like sites, 1 h",[6]; [12],36 ± 17 % control
same,"Inhibition of trypsin-like sites, 6 h +NC-022",[6]; [12],96 ± 1 % control
same,"Inhibition of trypsin-like sites, 6 h −NC-022",[6]; [12],45 ± 2 % control
